Experiments:
Details in all cases: human; call rule not given here
Hepatotoxicity [1] = experiment: FDA HLAED, lactate dehydrogenase (LDH) increase
Hepatotoxicity [2] = experiment: FDA HLAED, serum glutamic pyruvic transaminase (SGPT) increase
Hepatotoxicity [3] = experiment: FDA HLAED, liver enzyme composite activity
Hepatotoxicity [4] = experiment: FDA HLAED, alkaline phosphatase increase
Hepatotoxicity [5] = experiment: FDA HLAED, serum glutamic oxaloacetic transaminase (SGOT) increase
Hepatotoxicity [6] = experiment: FDA HLAED, gamma-glutamyl transferase (GGT) increase
Wherever GGT Increase - Index Value is given: reference of the scale not given here.
Wherever LDH Increase - Index Value is given: reference of the scale not given here.

NCCCC[C@H](N[C@@H](CCc1ccccc1)C(=O)O)C(=O)N1CCC[C@H]1C(=O)O [LISINOPRIL ANHYDROUS]
LDH Increase - Activity Score (Hepatotoxicity [1]): Inactive
LDH Increase - Index Value (Hepatotoxicity [1]): 1.2
LDH Increase - Number of Reports (Hepatotoxicity [1]): >= 4
SGPT Increase - Activity Score (Hepatotoxicity [2]): Inactive
SGPT Increase - Index Value (Hepatotoxicity [2]): 1.4
SGPT Increase - Number of Reports (Hepatotoxicity [2]): >= 4
Composite Activity - Active (Hepatotoxicity [3]): 0
Composite Activity - Marginal (Hepatotoxicity [3]): 0
Composite Activity - Score (Hepatotoxicity [3]): Inactive
Alkaline Phosphatase Increase - Activity Score (Hepatotoxicity [4]): Inactive
Alkaline Phosphatase Increase - Index Value (Hepatotoxicity [4]): 2
Alkaline Phosphatase Increase - Number of Reports (Hepatotoxicity [4]): >= 4
SGOT Increase - Activity Score (Hepatotoxicity [5]): Inactive
SGOT Increase - Index Value (Hepatotoxicity [5]): 1.5
SGOT Increase - Number of Reports (Hepatotoxicity [5]): >= 4
GGT Increase - Activity Score (Hepatotoxicity [6]): Inactive
GGT Increase - Index Value (Hepatotoxicity [6]): 1
GGT Increase - Number of Reports (Hepatotoxicity [6]): >= 4

N#Cc1cc(NC(=O)C(=O)O)c(Cl)c(NC(=O)C(=O)O)c1 [LODOXAMIDE]
LDH Increase - Activity Score (Hepatotoxicity [1]): Inactive
LDH Increase - Index Value (Hepatotoxicity [1]): 0
LDH Increase - Number of Reports (Hepatotoxicity [1]): < 4
SGPT Increase - Activity Score (Hepatotoxicity [2]): Inactive
SGPT Increase - Index Value (Hepatotoxicity [2]): 0
SGPT Increase - Number of Reports (Hepatotoxicity [2]): < 4
Composite Activity - Active (Hepatotoxicity [3]): 0
Composite Activity - Marginal (Hepatotoxicity [3]): 0
Composite Activity - Score (Hepatotoxicity [3]): Inactive
Alkaline Phosphatase Increase - Activity Score (Hepatotoxicity [4]): Inactive
Alkaline Phosphatase Increase - Index Value (Hepatotoxicity [4]): 0
Alkaline Phosphatase Increase - Number of Reports (Hepatotoxicity [4]): < 4
SGOT Increase - Activity Score (Hepatotoxicity [5]): Inactive
SGOT Increase - Index Value (Hepatotoxicity [5]): 0
SGOT Increase - Number of Reports (Hepatotoxicity [5]): < 4
GGT Increase - Activity Score (Hepatotoxicity [6]): Inactive
GGT Increase - Index Value (Hepatotoxicity [6]): 0
GGT Increase - Number of Reports (Hepatotoxicity [6]): < 4

N[C@@H](C(=O)N[C@@H]1C(=O)N2C(C(=O)O)=C(Cl)CC[C@H]12)c1ccccc1 [LORACARBEF ANHYDROUS]
LDH Increase - Activity Score (Hepatotoxicity [1]): Inactive
LDH Increase - Index Value (Hepatotoxicity [1]): 0
LDH Increase - Number of Reports (Hepatotoxicity [1]): < 4
SGPT Increase - Activity Score (Hepatotoxicity [2]): Inactive
SGPT Increase - Index Value (Hepatotoxicity [2]): 0.2
SGPT Increase - Number of Reports (Hepatotoxicity [2]): < 4
Composite Activity - Active (Hepatotoxicity [3]): 0
Composite Activity - Marginal (Hepatotoxicity [3]): 0
Composite Activity - Score (Hepatotoxicity [3]): Inactive
Alkaline Phosphatase Increase - Activity Score (Hepatotoxicity [4]): Inactive
Alkaline Phosphatase Increase - Index Value (Hepatotoxicity [4]): 0.2
Alkaline Phosphatase Increase - Number of Reports (Hepatotoxicity [4]): < 4
SGOT Increase - Activity Score (Hepatotoxicity [5]): Inactive
SGOT Increase - Index Value (Hepatotoxicity [5]): 0.2
SGOT Increase - Number of Reports (Hepatotoxicity [5]): < 4
GGT Increase - Activity Score (Hepatotoxicity [6]): Inactive
GGT Increase - Index Value (Hepatotoxicity [6]): 0.1
GGT Increase - Number of Reports (Hepatotoxicity [6]): < 4

CCOC(=O)N1CCC(=C2c3ccc(Cl)cc3CCc3cccnc32)CC1 [LORATADINE]
LDH Increase - Activity Score (Hepatotoxicity [1]): Inactive
LDH Increase - Index Value (Hepatotoxicity [1]): 0.2
LDH Increase - Number of Reports (Hepatotoxicity [1]): < 4
SGPT Increase - Activity Score (Hepatotoxicity [2]): Inactive
SGPT Increase - Index Value (Hepatotoxicity [2]): 0.6
SGPT Increase - Number of Reports (Hepatotoxicity [2]): >= 4
Composite Activity - Active (Hepatotoxicity [3]; Liver): 0
Composite Activity - Marginal (Hepatotoxicity [3]; Liver): 0
Composite Activity - Score (Hepatotoxicity [3]; Liver): Inactive
Alkaline Phosphatase Increase - Activity Score (Hepatotoxicity [4]): Inactive
Alkaline Phosphatase Increase - Index Value (Hepatotoxicity [4]): 0.7
Alkaline Phosphatase Increase - Number of Reports (Hepatotoxicity [4]): >= 4
SGOT Increase - Activity Score (Hepatotoxicity [5]): Inactive
SGOT Increase - Index Value (Hepatotoxicity [5]): 0.9
SGOT Increase - Number of Reports (Hepatotoxicity [5]): >= 4
GGT Increase - Activity Score (Hepatotoxicity [6]): Inactive
GGT Increase - Index Value (Hepatotoxicity [6]): 0.5
GGT Increase - Number of Reports (Hepatotoxicity [6]): >= 4

CCCCc1nc(Cl)c(CO)n1Cc1ccc(-c2ccccc2-c2nn[nH]n2)cc1 [LOSARTAN]
LDH Increase - Activity Score (Hepatotoxicity [1]): Inactive
LDH Increase - Index Value (Hepatotoxicity [1]): 0.4
LDH Increase - Number of Reports (Hepatotoxicity [1]): < 4
SGPT Increase - Activity Score (Hepatotoxicity [2]): Inactive
SGPT Increase - Index Value (Hepatotoxicity [2]): 1
SGPT Increase - Number of Reports (Hepatotoxicity [2]): >= 4
Composite Activity - Active (Hepatotoxicity [3]): 0
Composite Activity - Marginal (Hepatotoxicity [3]): 0
Composite Activity - Score (Hepatotoxicity [3]): Inactive
Alkaline Phosphatase Increase - Activity Score (Hepatotoxicity [4]): Inactive
Alkaline Phosphatase Increase - Index Value (Hepatotoxicity [4]): 0.4
Alkaline Phosphatase Increase - Number of Reports (Hepatotoxicity [4]): < 4
SGOT Increase - Activity Score (Hepatotoxicity [5]): Inactive
SGOT Increase - Index Value (Hepatotoxicity [5]): 0.8
SGOT Increase - Number of Reports (Hepatotoxicity [5]): >= 4
GGT Increase - Activity Score (Hepatotoxicity [6]): Inactive
GGT Increase - Index Value (Hepatotoxicity [6]): 0.6
GGT Increase - Number of Reports (Hepatotoxicity [6]): < 4

CNCCCC12CCC(c3ccccc31)c1ccccc12 [MAPROTILINE]
LDH Increase - Activity Score (Hepatotoxicity [1]): Inactive
LDH Increase - Index Value (Hepatotoxicity [1]): 0
LDH Increase - Number of Reports (Hepatotoxicity [1]): < 4
SGPT Increase - Activity Score (Hepatotoxicity [2]): Inactive
SGPT Increase - Index Value (Hepatotoxicity [2]): 0.3
SGPT Increase - Number of Reports (Hepatotoxicity [2]): < 4
Composite Activity - Active (Hepatotoxicity [3]; Liver): 0
Composite Activity - Marginal (Hepatotoxicity [3]; Liver): 0
Composite Activity - Score (Hepatotoxicity [3]; Liver): Inactive
Alkaline Phosphatase Increase - Activity Score (Hepatotoxicity [4]): Inactive
Alkaline Phosphatase Increase - Index Value (Hepatotoxicity [4]): 0.5
Alkaline Phosphatase Increase - Number of Reports (Hepatotoxicity [4]): < 4
SGOT Increase - Activity Score (Hepatotoxicity [5]): Inactive
SGOT Increase - Index Value (Hepatotoxicity [5]): 0.3
SGOT Increase - Number of Reports (Hepatotoxicity [5]): < 4
GGT Increase - Activity Score (Hepatotoxicity [6]): Inactive
GGT Increase - Index Value (Hepatotoxicity [6]): 0
GGT Increase - Number of Reports (Hepatotoxicity [6]): < 4

C=C1c2c(Cl)ccc(O)c2C(=O)C2=C(O)[C@]3(O)C(=O)C(C(N)=O)=C(O)[C@@H](N(C)C)[C@@H]3[C@@H](O)[C@H]12 [MECLOCYCLINE]
LDH Increase - Activity Score (Hepatotoxicity [1]): Inactive
LDH Increase - Index Value (Hepatotoxicity [1]): 0
LDH Increase - Number of Reports (Hepatotoxicity [1]): < 4
SGPT Increase - Activity Score (Hepatotoxicity [2]): Inactive
SGPT Increase - Index Value (Hepatotoxicity [2]): 0
SGPT Increase - Number of Reports (Hepatotoxicity [2]): < 4
Composite Activity - Active (Hepatotoxicity [3]): 0
Composite Activity - Marginal (Hepatotoxicity [3]): 0
Composite Activity - Score (Hepatotoxicity [3]): Inactive
Alkaline Phosphatase Increase - Activity Score (Hepatotoxicity [4]): Inactive
Alkaline Phosphatase Increase - Index Value (Hepatotoxicity [4]): 0
Alkaline Phosphatase Increase - Number of Reports (Hepatotoxicity [4]): < 4
SGOT Increase - Activity Score (Hepatotoxicity [5]): Inactive
SGOT Increase - Index Value (Hepatotoxicity [5]): 0
SGOT Increase - Number of Reports (Hepatotoxicity [5]): < 4
GGT Increase - Activity Score (Hepatotoxicity [6]): Inactive
GGT Increase - Index Value (Hepatotoxicity [6]): 0
GGT Increase - Number of Reports (Hepatotoxicity [6]): < 4

Cc1ccc(Cl)c(Nc2ccccc2C(=O)O)c1Cl [MECLOFENAMIC ACID]
LDH Increase - Activity Score (Hepatotoxicity [1]): Inactive
LDH Increase - Index Value (Hepatotoxicity [1]): 0
LDH Increase - Number of Reports (Hepatotoxicity [1]): < 4
SGPT Increase - Activity Score (Hepatotoxicity [2]): Inactive
SGPT Increase - Index Value (Hepatotoxicity [2]): 0
SGPT Increase - Number of Reports (Hepatotoxicity [2]): < 4
Composite Activity - Active (Hepatotoxicity [3]): 0
Composite Activity - Marginal (Hepatotoxicity [3]): 0
Composite Activity - Score (Hepatotoxicity [3]): Inactive
Alkaline Phosphatase Increase - Activity Score (Hepatotoxicity [4]): Inactive
Alkaline Phosphatase Increase - Index Value (Hepatotoxicity [4]): 0
Alkaline Phosphatase Increase - Number of Reports (Hepatotoxicity [4]): < 4
SGOT Increase - Activity Score (Hepatotoxicity [5]): Inactive
SGOT Increase - Index Value (Hepatotoxicity [5]): 0
SGOT Increase - Number of Reports (Hepatotoxicity [5]): < 4
GGT Increase - Activity Score (Hepatotoxicity [6]): Inactive
GGT Increase - Index Value (Hepatotoxicity [6]): 0
GGT Increase - Number of Reports (Hepatotoxicity [6]): < 4

OC(c1cc(C(F)(F)F)nc2c(C(F)(F)F)cccc12)C1CCCCN1 (configuration not stated) [MEFLOQUINE]
LDH Increase - Activity Score (Hepatotoxicity [1]): Inactive
LDH Increase - Index Value (Hepatotoxicity [1]): 0
LDH Increase - Number of Reports (Hepatotoxicity [1]): < 4
SGPT Increase - Activity Score (Hepatotoxicity [2]): Active
SGPT Increase - Index Value (Hepatotoxicity [2]): 32.5
SGPT Increase - Number of Reports (Hepatotoxicity [2]): >= 4
Composite Activity - Active (Hepatotoxicity [3]): 3
Composite Activity - Marginal (Hepatotoxicity [3]): 0
Composite Activity - Score (Hepatotoxicity [3]): Active
Alkaline Phosphatase Increase - Activity Score (Hepatotoxicity [4]): Inactive
Alkaline Phosphatase Increase - Index Value (Hepatotoxicity [4]): 7.2
Alkaline Phosphatase Increase - Number of Reports (Hepatotoxicity [4]): < 4
SGOT Increase - Activity Score (Hepatotoxicity [5]): Active
SGOT Increase - Index Value (Hepatotoxicity [5]): 25.3
SGOT Increase - Number of Reports (Hepatotoxicity [5]): >= 4
GGT Increase - Activity Score (Hepatotoxicity [6]): Active
GGT Increase - Index Value (Hepatotoxicity [6]): 18
GGT Increase - Number of Reports (Hepatotoxicity [6]): >= 4

From ChEMBL document CHEMBL1697781, “Assessment of the health effects of chemicals in humans: II. Construction of an adverse effects database for QSAR modeling” (Curr Drug Discov Technol, 2004)
